Laboratory results reported in US9624175B2, “Fused-bicyclic aryl quinolinone derivatives as mutant-isocitrate dehydrogenase inhibitors” (Forma Therapeutics, Inc., priority 2015, dated 2017).

Biological target: IDH1-R132H recombinant protein (Homo sapiens (Human), UniProt O75874, R132H)
Experiment: IDH1-R132H enzymatic assay (NADPH consumption, diaphorase/resazurin readout)
Assay type: biochemical
Conditions: inhibition of NADPH consumption, 30 nM IDH1-R132H; read-out: Enzyme IDH1 R132H IC50
Procedure: Assays were performed in a 384-well black plate. An aliquot of 250 nL of compound was incubated with 10 μL of 30 nM IDH1-R132H or 10 nM IDH1-R132C recombinant protein in assay buffer (50 mM Tris pH=7.5, 150 mM NaCl, 5 mM MgCl2, 0.1% (w/v) Bovine Serum Albumin, and 0.01% Triton X-100) in each well at 25° C. for 15 minutes. After the plate was centrifuged briefly, an aliquot of 10 μL of 2 mM α-ketoglutarate and 20 μM NADPH solution prepared in assay buffer was then added to each well and the reaction was maintained at 25° C. for 45 minutes. An aliquot of 10 μL of diaphorase solution (0.15 U/mL diaphorase and 30 μM Resazurin in assay buffer) was added to each well. The plate was maintained at 25° C. for 15 minutes and then read on a plate reader with excitation and emission wavelengths at 535 nm and 590 nm, respectively. The IC50 of a given compound was calculated by fitting the dose response curve of inhibition of NADPH consumption at a given concentration with the four parameter logistic equation.

IDH1-R132H recombinant protein, sequence (O75874 whole entry R132H): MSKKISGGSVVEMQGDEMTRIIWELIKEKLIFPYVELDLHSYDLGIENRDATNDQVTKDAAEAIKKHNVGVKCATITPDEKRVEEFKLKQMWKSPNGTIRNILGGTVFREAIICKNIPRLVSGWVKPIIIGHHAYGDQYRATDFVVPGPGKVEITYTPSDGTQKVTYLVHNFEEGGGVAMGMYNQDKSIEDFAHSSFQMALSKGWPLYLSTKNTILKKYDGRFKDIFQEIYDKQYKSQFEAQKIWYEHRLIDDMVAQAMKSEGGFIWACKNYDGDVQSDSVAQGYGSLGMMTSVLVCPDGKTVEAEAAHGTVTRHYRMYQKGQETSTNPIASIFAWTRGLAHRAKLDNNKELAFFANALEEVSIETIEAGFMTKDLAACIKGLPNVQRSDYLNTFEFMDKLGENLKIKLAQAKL

## Cc1cc2cc(CNc3ccc4cn[nH]c4c3)c(=O)[nH]c2cc1C [Compound I-31, 3-{[(1H-indazol-6-yl)amino]methyl}-6,7-dimethyl-1,2-dihydroquinolin-2-one]
  IC50: > 10 µM

## O=c1[nH]c2ccc(Cl)cc2cc1CNc1ccc2nncn2n1 [Compound I-23, 6-chloro-3-[({[1,2,4]triazolo[4,3-b]pyridazin-6-yl}amino)methyl]-1,2-dihydroquinolin-2-one]
  IC50: > 10 µM

## O=c1[nH]c2cc(NCc3cc4cc(Cl)ccc4[nH]c3=O)ccc2o1 [Compound I-3, 6-chloro-3-{[(2-oxo-2,3-dihydro-1,3-benzoxazol-5-yl)amino]methyl}-1,2-dihydroquinolin-2-one]
  IC50: 0.1 to 1 µM

## Cn1c(=O)oc2cc(NCc3cc4cc(Cl)ccc4[nH]c3=O)ccc21 [Compound I-14, 6-chloro-3-{[(3-methyl-2-oxo-2,3-dihydro-1,3-benzoxazol-6-yl)amino]methyl}-1,2-dihydroquinolin-2-one]
  IC50: > 10 µM

## O=C1COc2cc(NCc3cc4cc(Cl)ccc4[nH]c3=O)ccc2N1 [Compound I-11, 7-{[(6-chloro-2-oxo-1,2-dihydroquinolin-3-yl)methyl]amino}-3,4-dihydro-2H-1,4-benzoxazin-3-one]
  IC50: 1 to 10 µM

## COc1ccc2[nH]c(=O)c(CNc3ccc4ncsc4c3)cc2c1 [Compound I-36, 3-{[(1,3-benzothiazol-6-yl)amino]methyl}-6-methoxy-1,2-dihydroquinolin-2-one]
  IC50: > 10 µM

## COc1ccc2[nH]c(=O)c(CNc3ccc4ncccc4c3)cc2c1 [Compound I-39, 6-methoxy-3-{[(quinolin-6-yl)amino]methyl}-1,2-dihydroquinolin-2-one]
  IC50: > 10 µM

## N#Cc1ccc(NCc2cc3cc(Cl)ccc3[nH]c2=O)c2ccccc12 [Compound I-7, 4-{[(6-chloro-2-oxo-1,2-dihydroquinolin-3-yl)methyl]amino}naphthalene-1-carbonitrile]
  IC50: 1 to 10 µM

## O=C1CCCc2c(NCc3cc4cc(Cl)ccc4[nH]c3=O)cccc21 [Compound I-22, 6-chloro-3-{[(5-oxo-5,6,7,8-tetrahydronaphthalen-1-yl)amino]methyl}-1,2-dihydroquinolin-2-one]
  IC50: > 10 µM

## O=C1CCc2ccc(NCc3cc4cc(Cl)ccc4[nH]c3=O)cc2N1 [Compound I-18, 6-chloro-3-{[(2-oxo-1,2,3,4-tetrahydroquinolin-7-yl)amino]methyl}-1,2-dihydroquinolin-2-one]
  IC50: > 10 µM

## COc1cc2c(cc1NCc1cc3cc(Cl)ccc3[nH]c1=O)NC(=O)CC2 [Compound I-17, 6-chloro-3-{[(6-methoxy-2-oxo-1,2,3,4-tetrahydroquinolin-7-yl)amino]methyl}-1,2-dihydroquinolin-2-one]
  IC50: > 10 µM

## Cc1ccc2cc(NCc3cc4cc(C)c(C)cc4[nH]c3=O)ccc2n1 [Compound I-37, 6,7-dimethyl-3-{[(2-methylquinolin-6-yl)amino]methyl}-1,2-dihydroquinolin-2-one]
  IC50: > 10 µM

## Cn1c(=O)oc2ccc(NCc3cc4cc(Cl)ccc4[nH]c3=O)cc21 [Compound I-2, 6-chloro-3-{[(3-methyl-2-oxo-2,3-dihydro-1,3-benzoxazol-5-yl)amino]methyl}-1,2-dihydroquinolin-2-one]
  IC50: 0.1 to 1 µM

## O=C1Cc2ccc(NCc3cc4cc(Cl)ccc4[nH]c3=O)cc2N1 [Compound I-13, 6-chloro-3-{[(2-oxo-2,3-dihydro-1H-indol-6-yl)amino]methyl}-1,2-dihydroquinolin-2-one]
  IC50: > 10 µM

## O=c1[nH]c2ccc(Cl)cc2cc1CNc1cccc2c1OCCC2 [Compound I-16, 6-chloro-3-{[(3,4-dihydro-2H-1-benzopyran-8-yl)amino]methyl}-1,2-dihydroquinolin-2-one]
  IC50: > 10 µM

## O=c1[nH]c2ccc(Cl)cc2cc1CNc1ccc2ncccc2c1 [Compound I-27, 6-chloro-3-{[(quinolin-6-yl)amino]methyl}-1,2-dihydroquinolin-2-one]
  IC50: > 10 µM

## COc1cc2cc(CNc3ccc4[nH]c(-c5ccc6[nH]cnc6c5)nc4c3)c(=O)[nH]c2cc1OC [Compound I-12, 3-({[2-(1H-1,3-benzodiazol-5-yl)-1H-1,3-benzodiazol-5-yl]amino}methyl)-6,7-dimethoxy-1,2-dihydroquinolin-2-one]
  IC50: > 10 µM

## Cc1n[nH]c2cc(NCc3cc4cc(Cl)ccc4[nH]c3=O)ccc12 [Compound I-19, 6-chloro-3-{[(3-methyl-1H-indazol-6-yl)amino]methyl}-1,2-dihydroquinolin-2-one]
  IC50: > 10 µM

## O=c1[nH]c2ccc(Cl)cc2cc1CNc1ccc2[nH]ncc2c1 [Compound I-38, 6-chloro-3-{[(1H-indazol-5-yl)amino]methyl}-1,2-dihydroquinolin-2-one]
  IC50: > 10 µM

## CN1C(=O)CCc2cc(NCc3cc4cc(Cl)ccc4[nH]c3=O)ccc21 [Compound I-5, 6-chloro-3-{[(1-methyl-2-oxo-1,2,3,4-tetrahydroquinolin-6-yl)amino]methyl}-1,2-dihydroquinolin-2-one]
  IC50: 0.1 to 1 µM

## Cc1cc2cc(CNc3ccc4ncsc4c3)c(=O)[nH]c2cc1C [Compound I-40, 3-{[(1,3-benzothiazol-6-yl)amino]methyl}-6,7-dimethyl-1,2-dihydroquinolin-2-one]
  IC50: > 10 µM

## COc1ccc2[nH]c(=O)c(CNc3ccc4nc(C)ccc4c3)cc2c1 [Compound I-35, 6-methoxy-3-{[(2-methylquinolin-6-yl)amino]methyl}-1,2-dihydroquinolin-2-one]
  IC50: > 10 µM

## O=c1[nH]c2ccc(Cl)cc2cc1CNc1cccc2ccncc12 [Compound I-15, 6-chloro-3-{[(isoquinolin-8-yl)amino]methyl}-1,2-dihydroquinolin-2-one]
  IC50: > 10 µM

## Cc1ccc2cc(NCc3cc4cc(Cl)ccc4[nH]c3=O)ccc2n1 [Compound I-32, 6-chloro-3-{[(2-methylquinolin-6-yl)amino]methyl}-1,2-dihydroquinolin-2-one]
  IC50: > 10 µM

## COc1ccc2[nH]c(=O)c(CNc3ccc4cn[nH]c4c3)cc2c1 [Compound I-34, 3-{[(1H-indazol-6-yl)amino]methyl}-6-methoxy-1,2-dihydroquinolin-2-one]
  IC50: > 10 µM

## O=c1[nH]c2ccc(Cl)cc2cc1CNc1ccc2c(c1)OCCO2 [Compound I-33, 6-chloro-3-{[(2,3-dihydro-1,4-benzodioxin-6-yl)amino]methyl}-1,2-dihydroquinolin-2-one]
  IC50: > 10 µM

## COc1ccc2[nH]c(=O)c(CNc3ccc4sc(C)nc4c3)cc2c1 [Compound I-21, 6-methoxy-3-{[(2-methyl-1,3-benzothiazol-5-yl)amino]methyl}-1,2-dihydroquinolin-2-one]
  IC50: > 10 µM

## O=c1[nH]c2ccc(Cl)cc2cc1CNc1ccc2[nH]c(C(F)(F)F)nc2c1 [Compound I-28, 6-chloro-3-({[2-(trifluoromethyl)-1H-1,3-benzodiazol-5-yl]amino}methyl)-1,2-dihydroquinolin-2-one]
  IC50: > 10 µM

## O=c1[nH]c2ccc(Cl)cc2cc1CNc1ccc2ncsc2c1 [Compound I-26, 3-{[(1,3-benzothiazol-6-yl)amino]methyl}-6-chloro-1,2-dihydroquinolin-2-one]
  IC50: > 10 µM

## O=C1CCc2cc(NCc3cc4cc(Cl)ccc4[nH]c3=O)ccc2N1 [Compound I-20, 6-chloro-3-{[(2-oxo-1,2,3,4-tetrahydroquinolin-6-yl)amino]methyl}-1,2-dihydroquinolin-2-one]
  IC50: 1 to 10 µM

## O=c1[nH]c2ccc(Cl)cc2cc1CNc1cccc2cccnc12 [Compound I-8, 6-chloro-3-{[(quinolin-8-yl)amino]methyl}-1,2-dihydroquinolin-2-one]
  IC50: 1 to 10 µM

## CC(C)(C)c1ccc2[nH]c(=O)c(CNc3ccc4[nH]ncc4c3)cc2c1 [Compound I-41, 6-tert-butyl-3-{[(1H-indazol-5-yl)amino]methyl}-1,2-dihydroquinolin-2-one]
  IC50: 1 to 10 µM

## O=c1[nH]c2ccc(Cl)cc2cc1CNc1ccc2scnc2c1 [Compound I-29, 3-{[(1,3-benzothiazol-5-yl)amino]methyl}-6-chloro-1,2-dihydroquinolin-2-one]
  IC50: > 10 µM

## O=c1[nH]c2ccc(Cl)cc2cc1CNc1cccc2c1OCC2 [Compound I-9, 6-chloro-3-{[(2,3-dihydro-1-benzofuran-7-yl)amino]methyl}-1,2-dihydroquinolin-2-one]
  IC50: 1 to 10 µM

## O=c1[nH]c2ccc(Cl)cc2cc1CNc1cc2ccccc2cn1 [Compound I-6, 6-chloro-3-{[(isoquinolin-3-yl)amino]methyl}-1,2-dihydroquinolin-2-one]
  IC50: 1 to 10 µM

## O=c1[nH]c2ccc(Cl)cc2cc1CNc1ccc2cn[nH]c2c1 [Compound I-25, 6-chloro-3-{[(1H-indazol-6-yl)amino]methyl}-1,2-dihydroquinolin-2-one]
  IC50: > 10 µM

## COc1ccc2[nH]c(=O)c(CNc3ccc4c(c3)OCCO4)cc2c1 [Compound I-30, 3-{[(2,3-dihydro-1,4-benzodioxin-6-yl)amino]methyl}-6-methoxy-1,2-dihydroquinolin-2-one]
  IC50: > 10 µM

## CN1C(=O)COc2cc(NCc3cc4cc(Cl)ccc4[nH]c3=O)ccc21 [Compound I-10, 7-{[(6-chloro-2-oxo-1,2-dihydroquinolin-3-yl)methyl]amino}-4-methyl-3,4-dihydro-2H-1,4-benzoxazin-3-one]
  IC50: 1 to 10 µM

## O=c1[nH]c2ccc(Cl)cc2cc1CNc1ccc2[nH]cnc2c1 [Compound I-24, 3-{[(1H-1,3-benzodiazol-5-yl)amino]methyl}-6-chloro-1,2-dihydroquinolin-2-one]
  IC50: > 10 µM
